Experimental data from patent US20240409585A1, “MACROCYCLIC IMMUNOMODULATORS” (priority 2021, published 2024).
Numbered stars: 1 amine (or outer) side, 2 acyl side, 3 side chain; on linkers, the order of the positions; unused ones are H or OH. Bridge positions count the residues as written; N and C are the ends. Square brackets hold non-standard residues; d marks the D form. Peptide text beside a SMILES is read from it. * marks the point of attachment. ξ: configuration not given here. Phe(4-COOH) = N[C@@H](Cc1ccc(C(=O)O)cc1)C(=O)O; X27 = O=C([C@H](Cc1ccc2ncccc2c1)N[*:1])[*:2]; Asp(3,3-Me2) = CC(C)(C(=O)O)[C@H](N)C(=O)O; Bip = N[C@@H](Cc1ccc(-c2ccccc2)cc1)C(=O)O; Phe(3-Me) = Cc1cccc(C[C@H](N)C(=O)O)c1; Dopa = N[C@@H](Cc1ccc(O)c(O)c1)C(=O)O; Phe(2-F) = N[C@@H](Cc1ccccc1F)C(=O)O; Val(3-OH) = CC(C)(O)[C@H](N)C(=O)O; 4Pal = N[C@@H](Cc1ccncc1)C(=O)O; Cha = N[C@@H](CC1CCCCC1)C(=O)O; Cit = NC(=O)NCCC[C@H](N)C(=O)O; Ile(3ξ) = CCC(C)[C@H](N)C(=O)O; Thr(3ξ) = CC(O)[C@H](N)C(=O)O; hSer = N[C@@H](CCO)C(=O)O; Carboxymethyl = O=C(O)C*; NMeA = CN[C@@H](C)C(=O)O; Dab = NCC[C@H](N)C(=O)O; Dap = NC[C@H](N)C(=O)O

Target: T1, PE-labeled human PD-L1-Ig binding to Jurkat cell line over-expressing human PD-1 (Jurkat-PD-1) (Homo sapiens, UniProt Q15116)
T1 construct: expressed in transfected cells; host or cells: Jurkat
Experiment: Jurkat-PD-1 Cell Binding High-Content Screening Assay (CBA): Method 1
Details: Jurkat-hPD-1 cells, PE-labeled PD-L1-Ig 20 nM final; read-out: Jurkat HPDL1 PD1 IC50 (uM) (Method 1)

T1 sequence (Q15116 25-288): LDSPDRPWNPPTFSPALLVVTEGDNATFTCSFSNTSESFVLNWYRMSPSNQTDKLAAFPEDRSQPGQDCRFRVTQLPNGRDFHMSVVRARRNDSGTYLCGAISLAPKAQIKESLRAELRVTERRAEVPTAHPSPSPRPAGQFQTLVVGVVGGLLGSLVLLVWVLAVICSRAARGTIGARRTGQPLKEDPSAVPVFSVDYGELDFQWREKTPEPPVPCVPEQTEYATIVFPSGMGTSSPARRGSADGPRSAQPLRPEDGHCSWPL

Structure (SMILES) | IC50
CC(C)C[C@@H]1NC(=O)[C@H](Cc2c[nH]c3ccccc23)NC(=O)[C@H](CC(=O)O)NC(=O)[C@H](Cc2ccc(O)cc2)NC(=O)[C@H](Cc2ccccc2)NC(=O)CSC[C@@H](C(=O)NCC(N)=O)NC(=O)[C@H](CO)NC(=O)[C@H](C(C)C)NC(=O)[C@H](CC(C)C)NC(=O)[C@H](CC(N)=O)NC(=O)[C@H](CCO)NC(=O)[C@H](C)N(C)C(=O)[C@H](C(C)C)NC(=O)[C@H](Cc2ccc(-c3ccccc3)cc2)NC1=O [Compound 1814] ({CH2CO}-FYDWL[Bip]V[NMeA][hSer]NLVSCG-NH2; thioether N-14) | 0.3 µM
Cc1cccc(C[C@@H]2NC(=O)[C@H](CC(=O)O)NC(=O)[C@H](Cc3ccc(OCC(=O)O)cc3)NC(=O)[C@H]([C@@H](C)O)NC(=O)CSC[C@@H](C(N)=O)NC(=O)[C@H](CC(=O)O)NC(=O)[C@H](C(C)C)NC(=O)[C@H](CC3CCCCC3)NC(=O)[C@H](CC(N)=O)NC(=O)[C@@H](CC(C)C)NC(=O)[C@H](C)N(C)C(=O)[C@H](Cc3ccc(OCC(=O)O)cc3)NC(=O)[C@H](Cc3ccc(-c4ccccc4)cc3)NC(=O)[C@H](Cc3ccc(OCC(=O)O)cc3)NC2=O)c1 [Compound 1676] ({CH2CO}-TY(Carboxymethyl)D[Phe(3-Me)]Y(Carboxymethyl)[Bip]Y(Carboxymethyl)[NMeA][dL]N[Cha]VDC-NH2; thioether N-14) | 0.24 µM
CC(C)C[C@@H]1NC(=O)[C@H](Cc2c[nH]c3ccccc23)NC(=O)[C@H](CC(=O)O)NC(=O)[C@H](Cc2ccc(O)c(O)c2)NC(=O)[C@H](Cc2ccccc2)NC(=O)CSC[C@@H](C(=O)N[C@@H](C)C(N)=O)NC(=O)[C@H](CO)NC(=O)[C@H](C(C)C)NC(=O)[C@H](CC(C)C)NC(=O)[C@H](CC(N)=O)NC(=O)[C@@H](C)NC(=O)[C@H](C)N(C)C(=O)[C@H](C(C)C)NC(=O)[C@H](Cc2ccc(-c3ccccc3)cc2)NC1=O [Compound 1724] ({CH2CO}-F[Dopa]DWL[Bip]V[NMeA][dA]NLVSCA-NH2; thioether N-14) | 0.01 µM
CC(C)C[C@@H]1NC(=O)[C@H](CCO)NC(=O)[C@@H](CC(C)C)NC(=O)[C@H](C)N(C)C(=O)[C@H](CCCNC(N)=O)NC(=O)[C@H](Cc2ccc(-c3ccccc3)cc2)NC(=O)[C@H](C(C)C)NC(=O)[C@H](Cc2c[nH]c3ccccc23)NC(=O)[C@H](CC(=O)O)NC(=O)[C@H](Cc2ccc(O)cc2)NC(=O)[C@H](Cc2ccccc2)NC(=O)CSC[C@@H](C(=O)N[C@@H](C)C(N)=O)NC(=O)[C@H](C(C)O)NC(=O)[C@H](C(C)C)NC1=O (stereo partly drawn) [Compound 2032] ({CH2CO}-FYDWV[Bip][Cit][NMeA][dL][hSer]LV[Thr(3ξ)]CA-NH2; thioether N-14) | 0.05 µM
CC(C)C[C@@H]1NC(=O)[C@H](CCN)NC(=O)[C@@H](CC(C)C)NC(=O)[C@H](C)N(C)C(=O)[C@H](CCCNC(N)=O)NC(=O)[C@H](Cc2ccc(-c3ccccc3)cc2)NC(=O)[C@H](C(C)C)NC(=O)[C@H](Cc2c[nH]c3ccccc23)NC(=O)[C@H](CC(=O)O)NC(=O)[C@H](Cc2ccc(O)cc2)NC(=O)[C@H](Cc2ccc3ncccc3c2)NC(=O)CSC[C@@H](C(=O)N[C@@H](C)C(N)=O)NC(=O)[C@H](C(C)O)NC(=O)[C@H](C(C)C)NC1=O (stereo partly drawn) [Compound 2036] ({CH2CO}-[X27]YDWV[Bip][Cit][NMeA][dL][Dab]LV[Thr(3ξ)]CA-NH2; thioether N-14) | 0.04 µM
CC(C)C[C@@H]1NC(=O)[C@H](CCN)NC(=O)[C@@H](CC(C)C)NC(=O)[C@H](C)N(C)C(=O)[C@H](CCCNC(=N)N)NC(=O)[C@H](Cc2ccc(-c3ccccc3)cc2)NC(=O)[C@H](C(C)C)NC(=O)[C@H](Cc2c[nH]c3ccccc23)NC(=O)[C@H](CC(=O)O)NC(=O)[C@H](Cc2ccccc2F)NC(=O)[C@H](CN)NC(=O)CSC[C@@H](C(=O)N[C@@H](C)C(N)=O)NC(=O)[C@H]([C@@H](C)O)NC(=O)[C@H](C(C)C)NC1=O [Compound 1454] ({CH2CO}-[Dap][Phe(2-F)]DWV[Bip]R[NMeA][dL][Dab]LVTCA-NH2; thioether N-14) | 0.02 µM
CC(C)C[C@H]1NC(=O)[C@H](C)N(C)C(=O)[C@H](CCCNC(=N)N)NC(=O)[C@H](Cc2ccc(-c3ccccc3)cc2)NC(=O)[C@H](C(C)C)NC(=O)[C@H](Cc2c[nH]c3ccccc23)NC(=O)[C@H](CC(=O)O)NC(=O)[C@H](Cc2ccc(O)cc2)NC(=O)[C@H](CC(N)=O)NC(=O)CSC[C@@H](C(=O)N[C@@H](C)C(N)=O)NC(=O)[C@H]([C@@H](C)O)NC(=O)[C@H](C(C)C)NC(=O)[C@H](CC2CCCCC2)NC(=O)[C@H](CCN)NC1=O [Compound 1284] ({CH2CO}-NYDWV[Bip]R[NMeA][dL][Dab][Cha]VTCA-NH2; thioether N-14) | 0.01 µM
CC[C@H](C)[C@@H]1NC(=O)[C@H](Cc2ccc(-c3ccccc3)cc2)NC(=O)[C@H](C(C)C)NC(=O)[C@H](Cc2c[nH]c3ccccc23)NC(=O)[C@H](CC(=O)O)NC(=O)[C@H](Cc2ccc(C(=O)O)cc2)NC(=O)[C@H](Cc2ccncc2)NC(=O)CSC[C@@H](C(=O)N[C@@H](C)C(N)=O)NC(=O)[C@H]([C@@H](C)O)NC(=O)[C@H](C(C)C)NC(=O)[C@H](CC(C)C)NC(=O)[C@H](CCN)NC(=O)[C@@H](CC(C)C)NC(=O)[C@H](C)N(C)C1=O [Compound 1411] ({CH2CO}-[4Pal][Phe(4-COOH)]DWV[Bip]I[NMeA][dL][Dab]LVTCA-NH2; thioether N-14) | 0.02 µM
CC[C@H](C)[C@@H]1NC(=O)[C@H](Cc2ccc(-c3ccccc3)cc2)NC(=O)[C@H](C(C)C)NC(=O)[C@H](Cc2cccc(C)c2)NC(=O)[C@H](CC(=O)O)NC(=O)[C@H](Cc2ccc(O)cc2)NC(=O)[C@H](CC(N)=O)NC(=O)CSC[C@@H](C(=O)N[C@@H](CCN)C(N)=O)NC(=O)[C@H]([C@@H](C)O)NC(=O)[C@H](C(C)(C)O)NC(=O)[C@H](CC(C)C)NC(=O)[C@H](CCN)NC(=O)[C@@H](CC(C)C)NC(=O)[C@H](C)N(C)C1=O [Compound 1684] ({CH2CO}-NYD[Phe(3-Me)]V[Bip]I[NMeA][dL][Dab]L[Val(3-OH)]TC[Dab]-NH2; thioether N-14) | 0.01 µM
CC(C)C[C@@H]1NC(=O)[C@H](CCCNC(=N)N)NC(=O)[C@@H](CC(C)C)NC(=O)[C@H](C)N(C)C(=O)[C@H](CCCNC(=N)N)NC(=O)[C@H](Cc2ccc(-c3ccccc3)cc2)NC(=O)[C@H](C(C)C)NC(=O)[C@H](Cc2c[nH]c3ccccc23)NC(=O)[C@H](CC(=O)O)NC(=O)[C@H](Cc2ccc(O)cc2)NC(=O)[C@H](CC(N)=O)NC(=O)CSC[C@@H](C(=O)N[C@@H](C)C(N)=O)NC(=O)[C@H](CO)NC(=O)[C@H](C(C)C)NC1=O [Compound 1033] ({CH2CO}-NYDWV[Bip]R[NMeA][dL]RLVSCA-NH2; thioether N-14) | 0.03 µM
CC(C)C[C@H]1NC(=O)[C@H](C)N(C)C(=O)[C@H](CCC(=O)O)NC(=O)[C@H](Cc2ccc(-c3ccccc3)cc2)NC(=O)[C@H](C(C)C)NC(=O)[C@H](Cc2c[nH]c3ccccc23)NC(=O)[C@H](CC(=O)O)NC(=O)[C@H](Cc2ccc(O)cc2)NC(=O)[C@H](C(C)O)NC(=O)CSC[C@@H](C(=O)NCC(N)=O)NC(=O)[C@H](C(C)O)NC(=O)[C@H](C(C)C)NC(=O)[C@H](CC2CCCCC2)NC(=O)[C@H](CCN)NC1=O (stereo partly drawn) [Compound 2095] ({CH2CO}-[Thr(3ξ)]YDWV[Bip]E[NMeA][dL][Dab][Cha]V[Thr(3ξ)]CG-NH2; thioether N-14) | 0.04 µM
Cc1cccc(C[C@@H]2NC(=O)[C@H](CC(=O)O)NC(=O)[C@H](Cc3ccc(OCC(=O)O)cc3)NC(=O)[C@H](CCN)NC(=O)CSC[C@@H](C(=O)N[C@@H](CCN)C(N)=O)NC(=O)[C@H](CO)NC(=O)[C@H](C(C)(C)C(=O)O)NC(=O)[C@H](CC3CCCCC3)NC(=O)[C@H](CCN)NC(=O)[C@@H](CC(C)C)NC(=O)[C@H](C)N(C)C(=O)[C@H](Cc3ccc(OCC(=O)O)cc3)NC(=O)[C@H](Cc3ccc(-c4ccccc4)cc3)NC(=O)[C@H](Cc3ccc(OCC(=O)O)cc3)NC2=O)c1 [Compound 1848] ({CH2CO}-[Dab]Y(Carboxymethyl)D[Phe(3-Me)]Y(Carboxymethyl)[Bip]Y(Carboxymethyl)[NMeA][dL][Dab][Cha][Asp(3,3-Me2)]SC[Dab]-NH2; thioether N-14) | 0.06 µM
CC(C)C[C@@H]1NC(=O)[C@H](Cc2c[nH]c3ccccc23)NC(=O)[C@H](CC(=O)O)NC(=O)[C@H](Cc2ccc(C(=O)O)cc2)NC(=O)[C@H](Cc2ccc(OCC(=O)O)cc2)NC(=O)CSC[C@@H](C(=O)N[C@@H](CCN)C(N)=O)NC(=O)[C@H](CO)NC(=O)[C@H](C(C)C)NC(=O)[C@H](CC2CCCCC2)NC(=O)[C@H](CCN)NC(=O)[C@@H](CC(C)C)NC(=O)[C@H](C)N(C)C(=O)[C@H](C(C)C)NC(=O)[C@H](Cc2ccc(-c3ccccc3)cc2)NC1=O [Compound 1909] ({CH2CO}-Y(Carboxymethyl)[Phe(4-COOH)]DWL[Bip]V[NMeA][dL][Dab][Cha]VSC[Dab]-NH2; thioether N-14) | 0.01 µM
CCC(C)[C@@H]1NC(=O)[C@H](Cc2ccc(-c3ccccc3)cc2)NC(=O)[C@H](C(C)C)NC(=O)[C@H](Cc2cccc(C)c2)NC(=O)[C@H](CC(=O)O)NC(=O)[C@H](Cc2ccc(OCC(=O)O)cc2)NC(=O)[C@H](Cc2ccncc2)NC(=O)CSC[C@@H](C(=O)N[C@@H](CO)C(=O)O)NC(=O)[C@H](CO)NC(=O)[C@H](C(C)C)NC(=O)[C@H](CC2CCCCC2)NC(=O)[C@H](CCN)NC(=O)[C@@H](CC(C)C)NC(=O)[C@H](C)N(C)C1=O (stereo partly drawn) [Compound 2234] ({CH2CO}-[4Pal]Y(Carboxymethyl)D[Phe(3-Me)]V[Bip][Ile(3ξ)][NMeA][dL][Dab][Cha]VSCS-OH; thioether N-14) | 0.02 µM
CCC(C)[C@@H]1NC(=O)[C@H](Cc2ccc(-c3ccccc3)cc2)NC(=O)[C@H](CC(C)C)NC(=O)[C@H](Cc2c[nH]c3ccccc23)NC(=O)[C@H](CC(=O)O)NC(=O)[C@H](Cc2ccc(C(=O)O)cc2)NC(=O)[C@H](Cc2ccc(OCC(=O)O)cc2)NC(=O)CSC[C@@H](C(=O)N[C@@H](CC(N)=O)C(N)=O)NC(=O)[C@H]([C@@H](C)O)NC(=O)[C@H](C(C)C)NC(=O)[C@H](CC2CCCCC2)NC(=O)[C@H](CCN)NC(=O)[C@@H](CC(C)C)NC(=O)[C@H](C)N(C)C1=O (stereo partly drawn) [Compound 1919] ({CH2CO}-Y(Carboxymethyl)[Phe(4-COOH)]DWL[Bip][Ile(3ξ)][NMeA][dL][Dab][Cha]VTCN-NH2; thioether N-14) | 0.03 µM
